Values quoted from earlier work in US11129865B2, “NEUPANEX®: neuroprotective, neuroregenerational, and neurogenesis supporting supplement combination” (priority 2017, dated 2021).
One block for each molecule: values may come before it.

Tests used:
[1] = test system: heme oxygenase-1; details: astrocytes
[2] = test system: heat shock protein 60; details: astrocytes
[3] = rodents, increased dietary cholesterol
[4] = supplementary dietary cholesterol
[5] = test system: IL-10
[6] = test system: hippocampal cell culture; details: pretreatment, low to moderate concentration (10 nm-100 nm) in culture medium; voltage clamp and toxic NMDA insult
[7] = test system: IL-6 and IL-1 alpha and TNF-alpha

Molecule: CC(=O)O[C@H](CC(=O)[O-])C[N+](C)(C)C [acetyl-L-carnitine]
- levels of heme oxygenase-1 [1]: increased levels of heme oxygenase-1 were induced in a dose- and time-dependent manner
- heat shock protein 60 expression [2]: up-regulation of heat shock protein 60

- brain cholesterol [3]: dramatically increased brain cholesterol
Molecule: CC(C)CCC[C@@H](C)[C@H]1CC[C@H]2[C@@H]3CC=C4C[C@@H](O)CC[C@]4(C)[C@H]3CC[C@]12C [cholesterol]
- autistic behaviors of children with SLOS [4]: reduced or even eliminated

Molecule: Vitamin D
- Increases IL-10 [5]: Vitamin D: Increases IL-10 (43%), Decreases IL-6 & TNF-Alpha,
- neuroprotective effect compared to controls [6]: dramatic neuroprotective effect
- reduction in inflammatory cytokines IL-6, IL-1 alpha and TNF-alpha, concentration dependence [7]: lower concentrations of vitamin D were more effective than the higher concentrations
